Test system: NOMO1
Assay: cell viability relative to DMSO control; higher = less cytotoxic
Conditions: 48 h
Procedure, shortened: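 NOMO1 or SEM cells were plated at 500 cells/well and P12-Ichikawa cells at 1000 cells/well in 1536-well plates (5 μl), after each leukemia line had been adapted for at least four passages in each medium. Pin dosing delivered library compounds in DMSO at 11 threefold concentrations, 47 μM to 0.79 nM. CellTiter-Glo One luminescence was read after 48 h at 37°C. Viability is reported as a per-plate percentage of DMSO wells, with cell-free wells as background.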

[1] = HPLM + 10% dialyzed FBS, 0.000781 µM
[2] = HPLM + 10% dialyzed FBS, 0.00234 µM
[3] = HPLM + 10% dialyzed FBS, 0.00702 µM
[4] = HPLM + 10% dialyzed FBS, 0.0211 µM
[5] = HPLM + 10% dialyzed FBS, 0.0632 µM
[6] = HPLM + 10% dialyzed FBS, 0.19 µM
[7] = HPLM + 10% dialyzed FBS, 0.569 µM
[8] = HPLM + 10% dialyzed FBS, 1.71 µM
[9] = HPLM + 10% dialyzed FBS, 5.12 µM
[10] = HPLM + 10% dialyzed FBS, 15.4 µM
[11] = HPLM + 10% dialyzed FBS, 46.1 µM
[12] = RPMI 5 mM glucose + 10% FBS, 0.000781 µM
[13] = RPMI 5 mM glucose + 10% FBS, 0.00234 µM
[14] = RPMI 5 mM glucose + 10% FBS, 0.00702 µM
[15] = RPMI 5 mM glucose + 10% FBS, 0.0211 µM
[16] = RPMI 5 mM glucose + 10% FBS, 0.0632 µM
[17] = RPMI 5 mM glucose + 10% FBS, 0.19 µM
[18] = RPMI 5 mM glucose + 10% FBS, 0.569 µM
[19] = RPMI 5 mM glucose + 10% FBS, 1.71 µM
[20] = RPMI 5 mM glucose + 10% FBS, 5.12 µM
[21] = RPMI 5 mM glucose + 10% FBS, 15.4 µM
[22] = RPMI 5 mM glucose + 10% FBS, 46.1 µM
[23] = RPMI 5 mM glucose + 10% dialyzed FBS, 0.000781 µM
[24] = RPMI 5 mM glucose + 10% dialyzed FBS, 0.00234 µM
[25] = RPMI 5 mM glucose + 10% dialyzed FBS, 0.00702 µM
[26] = RPMI 5 mM glucose + 10% dialyzed FBS, 0.0211 µM
[27] = RPMI 5 mM glucose + 10% dialyzed FBS, 0.0632 µM
[28] = RPMI 5 mM glucose + 10% dialyzed FBS, 0.19 µM
[29] = RPMI 5 mM glucose + 10% dialyzed FBS, 0.569 µM
[30] = RPMI 5 mM glucose + 10% dialyzed FBS, 1.71 µM
[31] = RPMI 5 mM glucose + 10% dialyzed FBS, 5.12 µM
[32] = RPMI 5 mM glucose + 10% dialyzed FBS, 15.4 µM
[33] = RPMI 5 mM glucose + 10% dialyzed FBS, 46.1 µM

| SMILES | cell viability [1] [%] | cell viability [2] [%] | cell viability [3] [%] | cell viability [4] [%] | cell viability [5] [%] | cell viability [6] [%] | cell viability [7] [%] | cell viability [8] [%] | cell viability [9] [%] | cell viability [10] [%] | cell viability [11] [%] | cell viability [12] [%] | cell viability [13] [%] | cell viability [14] [%] | cell viability [15] [%] | cell viability [16] [%] | cell viability [17] [%] | cell viability [18] [%] | cell viability [19] [%] | cell viability [20] [%] | cell viability [21] [%] | cell viability [22] [%] | cell viability [23] [%] | cell viability [24] [%] | cell viability [25] [%] | cell viability [26] [%] | cell viability [27] [%] | cell viability [28] [%] | cell viability [29] [%] | cell viability [30] [%] | cell viability [31] [%] | cell viability [32] [%] | cell viability [33] [%] |
| --- | --- | --- | --- | --- | --- | --- | --- | --- | --- | --- | --- | --- | --- | --- | --- | --- | --- | --- | --- | --- | --- | --- | --- | --- | --- | --- | --- | --- | --- | --- | --- | --- | --- |
| Fc1ccc(C(c2ccc(F)cc2)N2CCN(C/C=C/c3ccccc3)CC2)cc1 | 115 | 123 | 144 | 135 | 117 | 121 | 104 | 103 | 105 | 112 | 95.9 | 112 | 111 | 106 | 123 | 113 | 114 | 107 | 107 | 108 | 115 | 104 |  |  |  |  |  |  |  |  |  |  |  |
| CC/1=C/N([C@@H]2C[C@@H](O)[C@H](CO)O2)C(=O)NC1=O | 97.5 | 109 | 89 | 104 | 102 | 101 | 100 | 95.1 | 80.3 | 92.8 | 61.2 | 84.9 | 85.2 | 82 | 83.4 | 88.7 | 99.3 | 79.7 | 88.1 | 90.1 | 83.7 | 66.4 | 80 | 94 | 84.6 | 86.4 | 98.4 | 87.7 | 92.1 | 85 | 75.9 | 94.4 | 62.3 |
| C1Cc2[nH]nc(-c3nn[nH]n3)c2C1 | 128 | 120 | 119 | 139 | 149 | 145 | 131 | 143 | 140 | 145 | 142 |  |  |  |  |  |  |  |  |  |  |  | 122 | 124 | 131 | 139 | 135 | 144 | 137 | 147 | 131 | 145 | 149 |
| ClC1=CC=C(CCCOC/2=N/NC(=O)C(=C2NCC3=CN=CC=C3)/Br)C=C1 | 124 | 117 | 150 | 115 | 115 | 118 | 97.9 | 75.4 | 38.8 | 15.9 | 7.76 |  |  |  |  |  |  |  |  |  |  |  | 121 | 120 | 127 | 112 | 111 | 109 | 106 | 106 | 66.2 | 27.8 | 12.9 |
| FC(F)(F)c1ccc(Nc2nc3cc(Oc4ccnc(-c5ncc(C(F)(F)F)[nH]5)c4)ccc3[nH]2)cc1 |  |  |  |  |  |  |  |  |  |  |  |  |  |  |  |  |  |  |  |  |  |  | 109 | 124 | 136 | 133 | 136 | 132 | 131 | 145 | 130 | 148 | 89.3 |
| CC[C@H]1OC(=O)[C@H](C)[C@@H](O[C@H]2C[C@@](C)(OC)[C@@H](O)[C@H](C)O2)[C@H](C)[C@@H](O[C@@H]2O[C@@H](C)C[C@H](N(C)C)[C@H]2O)[C@](C)(O)C[C@@H](C)C(=O)[C@H](C)[C@@H](O)[C@]1(C)O | 86.3 | 80.4 | 97.4 | 93 | 105 | 105 | 108 | 87 | 80.9 | 63.4 | 56.7 | 77.5 | 81 | 79.8 | 94.9 | 91.8 | 92.1 | 88.8 | 84.9 | 81 | 88.8 | 55 | 77.8 | 90.3 | 91 | 91.6 | 102 | 86.8 | 93.3 | 101 | 90.3 | 95.3 | 51.8 |
| C[N]1C=NC=C1[C@@](N)(C2=CC=C(Cl)C=C2)C3=CC=C4N(C)C(=O)\C=C(\C5=CC=CC(=C5)Cl)C4=C3 | 108 | 98.5 | 112 | 129 | 91.5 | 95.4 | 84.9 | 83.4 | 76.2 | 73.5 | 47.2 | 100 | 95.6 | 95.5 | 93.2 | 102 | 94.2 | 90.3 | 84.8 | 85.4 | 82.6 | 52.8 | 112 | 111 | 121 | 106 | 110 | 97.3 | 97.1 | 87.7 | 80.9 | 67.4 | 41.7 |
| CN(C)Cc1ccc(-c2nc3cccc4c3n2CCNC4=O)cc1 | 91.1 | 99.5 | 115 | 116 | 124 | 107 | 109 | 121 | 129 | 112 | 99.4 | 87.2 | 108 | 94.7 | 103 | 98.3 | 102 | 111 | 106 | 97.2 | 103 | 104 | 98 | 102 | 90.8 | 110 | 115 | 119 | 110 | 116 | 126 | 124 | 118 |
| CN(C)CCOC(c1ccccc1)c1ccccc1 | 94.4 | 84 | 105 | 116 | 111 | 112 | 112 | 113 | 109 | 104 | 83.5 | 112 | 111 | 106 | 121 | 117 | 106 | 115 | 107 | 107 | 101 | 53.6 | 94.6 | 112 | 101 | 113 | 122 | 111 | 110 | 109 | 104 | 119 | 64.6 |
| Cc1cc(Nc2ncc(Cl)c(Nc3ccccc3[S+](=O)([O-])C(C)C)n2)c(OC(C)C)cc1C1CCNCC1 |  |  |  |  |  |  |  |  |  |  |  | 126 | 113 | 112 | 132 | 126 | 127 | 115 | 97 | 76.8 | 54.1 | 6.06 | 127 | 120 | 112 | 117 | 122 | 109 | 105 | 114 | 67 | 52 | 4.03 |
| Clc1cccc(-c2nnnn2Cc2cccnc2)c1Cl | 82.8 | 92.7 | 96.4 | 99.9 | 92.4 | 93.1 | 79 | 57.2 | 49.8 | 48.6 | 33.1 | 80 | 87.1 | 89.5 | 84.1 | 91.5 | 89 | 90.5 | 62.9 | 55.8 | 57.2 | 48.5 | 81.5 | 83.6 | 91.1 | 93.6 | 83.7 | 83.2 | 83.9 | 52.5 | 59.1 | 58 | 47.8 |
| COC1=CC=C2Nc3cc(Cl)ccc3C(N=C3C=C(CN4CCCC4)C(=O)C(CN4CCCC4)=C3)=C2N1 |  |  |  |  |  |  |  |  |  |  |  | 105 | 103 | 120 | 110 | 133 | 127 | 125 | 135 | 116 | 119 | 119 |  |  |  |  |  |  |  |  |  |  |  |
| Cc1ccc(C(C)(O)c2nc3ccccc3s2)c(C)c1 (stereo unspecified) | 88.5 | 124 | 115 | 109 | 130 | 127 | 113 | 132 | 98.3 | 55.7 | 28.8 | 95.7 | 101 | 105 | 113 | 105 | 113 | 110 | 114 | 116 | 52.6 | 21.1 | 107 | 107 | 104 | 113 | 113 | 114 | 108 | 117 | 104 | 100 | 39.2 |
| C[C@H]1CN(C[C@@H](C)O1)CC(=O)NC2=CC=C3SC4=C(CC3=C2)C=CC=C4\C5=C\C(=O)\C=C(/O5)N6CCOCC6 | 100 | 125 | 108 | 123 | 126 | 128 | 118 | 89.2 | 72.5 | 39.2 | 35 | 93.4 | 125 | 121 | 118 | 107 | 106 | 98.7 | 106 | 96.8 | 64.2 | 55.8 | 85 | 108 | 107 | 106 | 104 | 113 | 100 | 97.3 | 85.5 | 62.7 | 45.2 |
| O=[N+]([O-])c1cn2c(n1)OC[C@@H](OCc1ccc(OC(F)(F)F)cc1)C2 |  |  |  |  |  |  |  |  |  |  |  |  |  |  |  |  |  |  |  |  |  |  | 120 | 141 | 115 | 126 | 145 | 142 | 148 | 118 | 138 | 139 | 120 |
| COC[C@H](NC(=O)c1cnc(C)s1)C(=O)N[C@@H](COC)C(=O)N[C@@H](Cc1ccccc1)C(=O)[C@@]1(C)CO1 | 105 | 106 | 111 | 107 | 97.2 | 83.5 | 23.5 | 6.64 | 1.03 | 0.172 | 1.92 | 98.6 | 108 | 92.9 | 94.3 | 93.6 | 98.1 | 28.1 | 6.29 | 1.06 | 0.581 | 1.29 | 98.8 | 98.1 | 97.6 | 96.7 | 98.3 | 88.1 | 30.2 | 5.68 | 2.49 | 0.98 | 1.62 |
| CN1CCCN(C(=O)c2cccc(-c3ccc(/C=C4/C(=O)Nc5ccc(Cl)cc54)o3)c2)CC1 | 134 | 118 | 120 | 124 | 112 | 102 | 109 | 103 | 91.8 | 96.7 | 66.1 | 124 | 107 | 108 | 110 | 98.3 | 109 | 94.4 | 96.1 | 99.4 | 85.8 | 47.4 | 111 | 112 | 109 | 107 | 111 | 109 | 104 | 96.2 | 85.6 | 94.5 | 60 |

— the supplement of paper PMC11451515
